Results on eight compounds are retold here after US9683014B2, “Dipeptide mimetics of NGF and BDNF neurotrophins” (UCHREZHDENIE ROSSIISKOI AKADEMII MEDITSYNSKIKH NAUK …, priority 2009, dated 2017).

In one data set the test system is Hsp70. Briefly: Western blot of Hsp70 in HT-22 cells. Type of data set: cell-based, mouse. The settings on record: for amount of Hsp70: 24 h after addition, GK-1, GK-2 10^−8 and 10^−5 M, GK-3 10^−6 M, GK-4 10^−7 M, GK-5 10^−6 M. The method, then: (§1) The amount of Hsp70, Hsp32 and pTrkA was determined in the cytoplasmic fraction of HT-22 neuronal cells. For heat shock proteins, a test compound was added to the culture 24 hours prior to testing, before the cells were washed off the culture liquid with PBS. For pTrkA, a test compound was added to the culture immediately prior to the cell lysis just for 1 or 2 min, before the cells were washed off the culture liquid with PBS. Then the cells were mixed with the lysis buffer (50 mM Tris-HCl, 5 mM EDTA, 1 mM DTT, 1% Triton X-100, pH 7.5) at 4° C. and lysed for 5 min, then scraped off, transferred into a 1.5 ml centrifuge tube and centrifuged at 13000 rpm and 4° C. for 10 min. The supernatant containing cytosolic proteins was assayed by electrophoresis and immunoblotting. Proteins were separated on a 10% polyacrylamide gel (PAAG) and transferred from PAAG onto a PVDF membrane by electroelution for 45 min. Western blots were pre-incubated for 1 h in a TBST solution containing 1% Tween-20 and supplemented with 5% (w/v) skim milk. Western blots were then incubated with the primary polyclonal anti-Hsp32 antibody diluted 1:1000 or primary monoclonal anti-Hsp70 antibody diluted 1:1000 or primary monoclonal anti-phosphorylated tyrosine kinase A antibody diluted 1:1000 for 1 hour. Then the blots were washed and incubated with a secondary antibody conjugated to horseradish peroxidase (diluted 1:2000) for 1 hour. The detection of Hsp70, Hsp32 and pTrkA was carried out by the ECL reaction on a Kodak film.

In data set [1] the test system is HT-22 cells. Description: Oxidative stress (H2O2) model in cultured HT-22 cells (MTT test). It counts as cell-based, mouse. The note with it: for neuronal survival under oxidative stress: added 24 hours prior to the stress exposure, 10^−8 M to 10^−5 M; for Optical density (MTT): 24 h before H2O2.
Description: To induce an oxidative stress, the cells were placed in a growth medium containing 5% FBS, then a freshly prepared H2O2 solution was added to a final concentration of 1.5 mM and incubated for 30 min at 37° C. and 5% CO2. Thereafter, the medium was replaced with a new one and the cells were cultured for 4 h under the same conditions.
The determination of cell viability was carried out by MTT test. […] At the end of an experiment the growth medium was replaced with an MTT solution (0.5 mg/ml) and incubated for 30 min at 37° C. and 5% CO2. The MTT solution was then removed from the wells and DMSO was added to dissolve the formazan precipitate. Then the optical density was measured using a Multiscan (Thermo) spectrophotometer at a wavelength of 600 nm.
The subject of the next data set is PC12 cells. Briefly: Differentiation of PC12 cells and modulation of the differentiation-inducing activity of NGF. Type of data set: cell-based, rat. The settings on record: for distance of branching points of the longest processes from the cell body / length of the longest processes: peptide + NGF (GK-3 10^−6 M, GK-4 10^−7 M, GK-5 10^−6 M). The method, then:
The rat adrenal […] pheochromocytoma cell line PC12 was obtained from the Cell Culture Museum, RAN Institute of Molecular Genetics. The immortalized mouse hippocampal cell line HT-22 was a gift from Prof. F. Viegant, Utrecht University, the Netherlands.
At the time of plating, either NGF (100 ng/ml, positive control) or a test compound was added to a final concentration of 10^−5 to 10^−9 M in the growth medium. Thereafter, the test peptides and NGF were added to the medium every 24 hours in one series of experiments and every 48 hours in another series, for a total of 6 days. The extent of cell differentiation was estimated on the basis of the shape and size of the cells and the number and length of the processes.
NGF was used as a positive control at a final concentration of 100 ng/ml.

In a further data set the target is T1, tyrosine kinase A (TrkA) (Mus musculus, UniProt Q3UFB7).
T1 construct: phosphorylation of tyrosine kinase A in cultured hippocampal neuronal cell line HT22; endogenous in cells; host or cells: HT-22 hippocampal neuronal cell line
T1 sequence (Q3UFB7 34-799): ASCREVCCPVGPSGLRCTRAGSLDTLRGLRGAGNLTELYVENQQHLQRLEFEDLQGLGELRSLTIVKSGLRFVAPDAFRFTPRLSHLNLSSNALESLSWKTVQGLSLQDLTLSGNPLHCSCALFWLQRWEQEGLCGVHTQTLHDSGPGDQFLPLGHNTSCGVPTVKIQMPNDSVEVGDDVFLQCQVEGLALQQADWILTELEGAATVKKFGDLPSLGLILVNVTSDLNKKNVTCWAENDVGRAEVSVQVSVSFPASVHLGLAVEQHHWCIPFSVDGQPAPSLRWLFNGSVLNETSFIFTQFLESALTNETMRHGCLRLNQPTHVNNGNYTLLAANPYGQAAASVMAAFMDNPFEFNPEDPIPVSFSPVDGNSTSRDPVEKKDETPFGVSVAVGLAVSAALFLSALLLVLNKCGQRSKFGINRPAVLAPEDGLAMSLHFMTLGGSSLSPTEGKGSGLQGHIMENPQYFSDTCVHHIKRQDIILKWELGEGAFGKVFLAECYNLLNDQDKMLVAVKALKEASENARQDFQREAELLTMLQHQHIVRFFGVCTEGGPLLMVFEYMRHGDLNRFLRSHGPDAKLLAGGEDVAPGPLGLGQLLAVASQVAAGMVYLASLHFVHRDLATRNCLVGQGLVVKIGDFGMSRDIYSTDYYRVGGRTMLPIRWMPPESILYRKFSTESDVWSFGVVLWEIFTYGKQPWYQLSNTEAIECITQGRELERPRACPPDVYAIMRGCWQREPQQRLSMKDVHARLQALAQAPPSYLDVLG
Briefly: Tyrosine kinase A phosphorylation in HT-22 cells (Western blot). The settings on record: first minute of exposure. It counts as cell-based. The method, then:
as §1

The subject of the next data set is Hsp32. Briefly: Western blot of Hsp32 in HT-22 cells. Type of data set: cell-based, mouse. The settings on record: for amount of Hsp32: 24 h after addition, GK-1, GK-2 10^−8 and 10^−5 M, GK-3 10^−6 M, GK-4 10^−7 M, GK-5 10^−6 M. How it is done: as §1
The test system of the next data set is PC12 cell line. Briefly: Cellular model of Parkinson's disease (MPTP, MTT test). Type of data set: cell-based, rat. The settings on record: added 24 hours prior to MPTP 1 mM. How it is done:
To produce a model for Parkinson's disease, MPTP was used at a final concentration of 1 mM (Shimoke K., Chiba H. Nerve growth factor prevents 1-methyl-[…]-1,2,3,6-tetrahydropyridine-induced cell death via the Akt pathway by suppressing caspase-3-like activity using PC12 cells: relevance to therapeutic application for Parkinson's disease. J. Neurosci. Res. 2001, 63, 402-409). MPTP was added to the cell growth medium containing 1% FBS at 24 hours after passage. The peptides were added to the cell growth medium concurrently with MPTP or 24 h before MPTP. Cell viability was determined at 24 h using an MTT test.

The subject of data set [2] is HT-22 cells. The note with it: added 24 hours prior to glutamate. The method, then: The determination of cell viability was carried out by MTT test. MTT is a water soluble tetrazolium salt of yellow color which readily permeates cells. In living cells, MTT is converted into water insoluble formazan crystals of violet color. At the end of an experiment the growth medium was replaced with an MTT solution (0.5 mg/ml) and incubated for 30 min at 37° C. and 5% CO2. The MTT solution was then removed from the wells and DMSO was added to dissolve the formazan precipitate. Then the optical density was measured using a Multiscan (Thermo) spectrophotometer at a wavelength of 600 nm.

Setting [3] is: GK-1 10^−5 M added 30 minutes before GK-2.

Numbered stars: 1 amine (or outer) side, 2 acyl side, 3 side chain; on linkers, the order of the positions; unused ones are H or OH. Bridge positions count the residues as written; N and C are the ends. Square brackets hold non-standard residues; d marks the D form. Peptide text beside a SMILES is read from it. I, II: the chains in the order shown. Ethylenediamine = C(CN[*:2])N[*:1]; Suc = O=C(CCC(=O)[*:2])[*:1]; Ahx = NCCCCCC(=O)O

On to `NCCCC[C@H](NC(=O)[C@H](CCC(=O)O)NC(=O)CCC(=O)O)C(N)=O` [GK-1, N-monosuccinyl-glutamyl-lysine amide] (Suc-Glu-Lys-NH2), for which the “amount of Hsp70” value in the data set with Hsp70 is listed as “no effect”. Further, the “amount of Hsp70 induced by GK-2” value with Hsp70 (setting [3]) was “no increase”. Besides, the “effect on the neuroprotective effect of GK-2” value with HT-22 cells [1] (setting [3]) is given as “eliminated the neuroprotective effect of GK-2”. In addition, the “neuronal survival under oxidative stress” value in the data set on HT-22 cells [1] is listed as “impaired the neuronal survival”. In addition, the “decrease of the differentiation-promoting effect of NGF” value in the data set with PC12 cells (GK-1 10^−5 M, counting differentiated and undifferentiated cells) amounted to 50%. Further, at tyrosine kinase A (TrkA), the “level of phosphorylated tyrosine kinase A” value (“level” below) is recorded as “decreased”. Besides, the “amount of Hsp32” value in the data set with Hsp32 was “no effect”. Further, the “amount of Hsp32 induced by GK-2” value with Hsp32 (setting [3]) is “no increase”.
Regarding `NCCCC[C@H](NC(=O)[C@H](CCC(=O)O)NC(=O)CCC(=O)O)C(=O)NCCCCCC(=O)NCCCNC(=O)CCCCCNC(=O)[C@H](CCCCN)NC(=O)[C@H](CCC(=O)O)NC(=O)CCC(=O)O` [GK-2a, bis-(N-monosuccinyl-glutamyl-lysyl-6-aminohexanoic acid) trimethylenediamide], the “protective effect against MPTP” value in the data set with PC12 cell line was “protective effect”. In addition, the “Optical density (MTT)” value in the data set with HT-22 cells [1] (Table 1.5, 10^−5M, control 0.1275 ± 0.021, H2O2 0.087 ± 0.006) is 0.108 ± 0.019^; in the data set with HT-22 cells [1] (Table 1.5, 10^−6M, control 0.1275 ± 0.021, H2O2 0.087 ± 0.006), 0.429 ± 0.02; with HT-22 cells [1] (Table 1.5, 10^−7M, control 0.1275 ± 0.021, H2O2 0.087 ± 0.006) it was 0.449 ± 0.024; in the data set with HT-22 cells [1] (Table 1.5, 10^−8M, control 0.1275 ± 0.021, H2O2 0.087 ± 0.006), 0.106 ± 0.028. Moreover, the “neuronal survival under oxidative stress” value in the data set on HT-22 cells [1] is recorded as “improved the neuronal survival”.
With `NCCCC[C@H](NC(=O)[C@H](CCC(=O)O)NC(=O)CCC(=O)O)C(=O)NCCCCCNC(=O)[C@H](CCCCN)NC(=O)[C@H](CCC(=O)O)NC(=O)CCC(=O)O` [GK-2b, bis-(N-monosuccinyl-glutamyl-lysine)pentamethylenediamide], the “neuronal survival under oxidative stress” value in the data set on HT-22 cells [1] was “improved the neuronal survival”.
In the case of `NCCCC[C@H](NC(=O)[C@H](CCC(=O)O)NC(=O)CCC(=O)O)C(=O)NCCNC(=O)[C@H](CCCCN)NC(=O)[C@H](CCC(=O)O)NC(=O)CCC(=O)O` [GK-2e, bis-(N-monosuccinyl-glutamyl-lysine)ethylenediamide] (I: Suc-Glu-Lys / II: Suc-Glu-Lys; linker I:C-II:C via Ethylenediamine), the “neuronal survival under oxidative stress” value in the data set with HT-22 cells [1] is reported as “improved the neuronal survival”.
As for `CC(=O)N[C@@H](CCCCN)C(=O)N[C@@H](CCC(=O)O)C(N)=O` [GK-3, N-acetyl-lysyl-glutamic acid amide] (Ac-Lys-Glu-NH2), the “amount of Hsp70” value in the data set on Hsp70 is listed as “no effect on Hsp70”. In addition, the “protective effect against MPTP” value in the data set with PC12 cell line is “protective effect”. Also, the “Optical density (MTT)” value with HT-22 cells [1] (Table 1.6, 10^−5M, control 0.111 ± 0.009, H2O2 0.093 ± 0.004) is given as 0.109 ± 0.019; with HT-22 cells [1] (Table 1.6, 10^−6M, control 0.111 ± 0.009, H2O2 0.093 ± 0.004), 0.110 ± 0.014^; in the data set with HT-22 cells [1] (Table 1.6, 10^−7M, control 0.111 ± 0.009, H2O2 0.093 ± 0.004) it was 0.099 ± 0.014; in the data set on HT-22 cells [1] (Table 1.6, 10^−8M, control 0.111 ± 0.009, H2O2 0.093 ± 0.004), 0.091 ± 0.014. Further, in the data set with HT-22 cells [1], the “neuronal survival under oxidative stress” value is “improved the neuronal survival”. Moreover, in the data set on PC12 cells, the “distance of branching points of the longest processes from the cell body” value (“distance” for short) is given as 25 μm. Also, the “length of the longest processes” value in the data set on PC12 cells is “not significantly different”. Besides, the “level” value at tyrosine kinase A (TrkA) was “increased”. Besides, the “amount of Hsp32” value in the data set on Hsp32 was “small increase”.
On to `CC(=O)NC(CCCCN)C(=O)NC(CCC(=O)O)C(=O)NCCCCCCNC(=O)C(CCC(=O)O)NC(=O)C(CCCCN)NC(C)=O` (centres unmarked) [GK-4, bis-(N-acetyl-lysyl-glutamic acid) hexamethylenediamide], for which the “amount of Hsp70” value in the data set with Hsp70 is reported as “significant increase”. The “protective effect against MPTP” value in the data set with PC12 cell line is reported as “protective effect”. The “Max. length of cell processes, μm on day 6” value is 67 ± 4.5′ μm in the data set on PC12 cells (10^−6M + NGF 30 ng/ml); 73 ± 9.5′ μm with PC12 cells (10^−6M + NGF 50 ng/ml); 55 ± 11.3′ μm with PC12 cells (10^−6M + NGF 100 ng/ml); 52 ± 10.3′ μm in the data set with PC12 cells (10^−7M + NGF 30 ng/ml); 56 ± 13.2′ μm in the data set with PC12 cells (10^−7M + NGF 50 ng/ml); 65 ± 12.2′ μm with PC12 cells (10^−7M + NGF 100 ng/ml). For the same compound, the “intercalary neurons in the differentiated cell population” value with PC12 cells (GK-4 10^−7 M + NGF) was 90%. Besides, the “distance” value in the data set with PC12 cells is recorded as 20 μm. Also, the “length of the longest processes” value with PC12 cells worked out at 65 μm. Besides, in the data set with Hsp32, the “amount of Hsp32” value is listed as “no effect on Hsp32”. Moreover, the “protective effect against glutamate cytotoxicity” value with HT-22 cells [2] is listed as “protective effect”.
For the compound `NCCCCCC(=O)NCC(=O)N[C@@H](CCCCN)C(N)=O` [GK-5, N-(6-aminocaproyl)-glycyl-lysine amide] (H-[Ahx]-Gly-Lys-NH2), the “amount of Hsp70” value with Hsp70 is reported as “no effect on Hsp70”. For the same compound, in the data set on PC12 cell line, the “protective effect against MPTP” value is “inactive”. For the same compound, the “Optical density (MTT)” value in the data set on HT-22 cells [1] (Table 1.8, 10^−5M, control 0.097 ± 0.009, H2O2 0.056 ± 0.009) was 0.065 ± 0.008; in the data set with HT-22 cells [1] (Table 1.8, 10^−6M, control 0.097 ± 0.009, H2O2 0.056 ± 0.009), 0.066 ± 0.008^; in the data set with HT-22 cells [1] (Table 1.8, 10^−7M, control 0.097 ± 0.009, H2O2 0.056 ± 0.009), 0.062 ± 0.009; in the data set with HT-22 cells [1] (Table 1.8, 10^−8M, control 0.097 ± 0.009, H2O2 0.056 ± 0.009) it was 0.058 ± 0.007. Further, the “neuronal survival under oxidative stress” value in the data set on HT-22 cells [1] is “improved the neuronal survival”. Besides, in the data set with PC12 cells, the “distance” value was “not different”. Also, in the data set with PC12 cells, the “length of the longest processes” value is listed as 55 μm. For the same compound, in the data set with PC12 cells (peptide alone, 10^−8 to 10^−5 M, NGF 100 ng/ml as positive control), the “differentiation of PC-12 cells” value is “differentiation-promoting effect at 10^−6 M and 10^−5 M”. The “level” value on tyrosine kinase A (TrkA) is “increased”. Moreover, the “amount of Hsp32” value in the data set with Hsp32 is recorded as “increase in the synthesis of Hsp32”.
As for `NCCCCCC(=O)NCC(=O)N[C@@H](CCCCN)C(=O)NCCCCCCNC(=O)[C@H](CCCCN)NC(=O)CNC(=O)CCCCCN` [GK-6, bis-(N-(6-aminocaproyl)glycyl-lysine) hexamethylenediamide], in the data set on HT-22 cells [1], the “neuronal survival under oxidative stress” value is listed as “improved the neuronal survival”.
